Patent US8946263B2, “Compositions and methods for modulating circadian synchronization” (Max-Planck-Gesellchaft zur Forderung der Wissenschaften E.V., priority 2011, dated 2015)

Assays:
[1] = tested on: hamsters; details: cited from earlier work
[2] = tested on: WT (C57BL/6J) mice; test: Behavioral reentrainment (wheel-running activity onsets) after 6-hour phase advance of the LD cycle; format: in vivo, mouse
Procedure: (§1) Handling and activity measurements during experiments were performed as described previously (Jud et al. 2005). Wheel-running activity was analyzed using ClockLab software (Actimetrics). For the jet lag experiment (6-hour rapid advance or 8-hour rapid delay of the LD cycle), animals were single-housed in running wheel-equipped cages for 2 weeks or longer under LD conditions (lights on, ZT0; light intensities of 350 lux). On day 1 of the jet lag, the lights-off time (ZT12) was shifted from 6 pm to […] (phase advance paradigm) or from 6 pm to 2 am (phase delay paradigm). Using a short day protocol, we defined day 1 as the first advanced dark period (similar to Davidson et al. 2009, who used a short night approach in which the first day is defined by the deemed light period; but different from Yamazaki et al. 2000, where the following day—corresponding to day 2 in our study—was referred to as day 1). […] Animals were synchronized to the new LD regimen for another 2 weeks during which time of wheel-running activity was recorded. Individual activity onsets before and after the shift were determined by visual inspection and averaged over the whole cohort to asses reentrainment rates. […]
(§2) Peak time analyses were performed using Prism software (GraphPad). […] Maxima were calculated using the axis section of the second derivative. […]

[3] = tested on: WT (C57BL/6J) mice; test: Observations during the 16-day metyrapone injection period before jet lag; format: in vivo, mouse; details: for effect on the onset of wheel-running activity: during injection period
Procedure: Handling and activity measurements during experiments were performed as described previously (Jud et al. 2005). Wheel-running activity was analyzed using ClockLab software (Actimetrics). For the jet lag experiment (6-hour rapid advance or 8-hour rapid delay of the LD cycle), animals were single-housed in running wheel-equipped cages for 2 weeks or longer under LD conditions (lights on, ZT0; light intensities of 350 lux). On day 1 of the jet lag, the lights-off time (ZT12) was shifted from 6 pm to […] (phase advance paradigm) or from 6 pm to 2 am (phase delay paradigm). Using a short day protocol, we defined day 1 as the first advanced dark period (similar to Davidson et al. 2009, who used a short night approach in which the first day is defined by the deemed light period; but different from Yamazaki et al. 2000, where the following day—corresponding to day 2 in our study—was referred to as day 1). For the delay experiment (8-hour rapid delay of the LD cycle), animals were housed in running wheel—equipped single cages for 2 weeks or longer under LD conditions (lights on, ZT0; light intensities of 50 lux). On day 1 of the jet lag, the lights-off time (ZT12) was shifted from 12 pm to 8 pm. Day 1 was defined here as the day with the first delayed dark period. Animals were synchronized to the new LD regimen for another 2 weeks during which time of wheel-running activity was recorded. Individual activity onsets before and after the shift were determined by visual inspection and averaged over the whole cohort to asses reentrainment rates. Administration of metyrapone (Sigma-Aldrich) to WT mice was done for 16 days prior to the jet lag procedure (see above). Two sets of 24 animals each received metyrapone dissolved in water (100 mg/kg body weight per day) via i.p. injection at different times during the day. Injections were stopped 1 day before the LD shift (day 0). METD animals were injected during the first half of their rest phase at ZT3; METN animals received metyrapone injections at the beginning of their activity phase at ZT12. […]

[4] = tested on: WT (C57BL/6J) mice; test: Behavioral reentrainment (wheel-running activity onsets) after 8-hour phase delay of the LD cycle; format: in vivo, mouse
Procedure: as §1, §2

[5] = tested on: corticosterone excretion rhythms; test: Fecal corticosterone excretion rhythm after 16 days of timed metyrapone injection; format: in vivo, mouse; details: for direction of shift of the peak of maximum glucocorticoid levels: mice
Procedure: Fecal samples were collected at 4-hour intervals before and after the jet lag treatment using wheel cages equipped with wire grid floors. To rule out stress-induced effects, animals were transferred to the collection cages 3 days prior to the first sampling interval. Fecal samples were stored at −80° C. Corticoid metabolite extraction and quantification by RIA (MP Biomedicals) were performed as described previously (Abraham et al. 2006).
Administration of metyrapone (Sigma-Aldrich) to WT mice was done for 16 days prior to the jet lag procedure (see above). Two sets of 24 animals each received metyrapone dissolved in water (100 mg/kg body weight per day) via i.p. injection at different times during the day. Injections were stopped 1 day before the LD shift (day 0). METD animals were injected during the first half of their rest phase at ZT3; METN animals received metyrapone injections at the beginning of their activity phase at ZT12. At day 16 of the treatment (day-1 relative to LD shift), fecal samples were collected to analyze the phase shift of corticoid excretion rhythms. Saline-treated (0.9% NaCl) WT littermates injected at ZT3 or ZT12 were used as controls for all experiments.
Peak time analyses were performed using Prism software (GraphPad). A sine wave equation, y=BaseLine+Amplitude sin(frequency x+PhaseShift), was fitted to the data. For gene expression and corticosterone data, frequency was fixed to 24 hours. Maxima were calculated using the axis section of the second derivative. To determine PS50, a sigmoid dose-response curve with variable slope was fitted to the sine wave maxima (corticosterone), y=Bottom+(Top−Bottom) (1+10(log PS50−x) HillSlope), or onset time points (locomotor activity) for each group. To test whether the best-fit PS50 values differed between data sets, data were compared by extra sum-of-squares F test using a P value of less than 0.05 as a threshold. Maxima of gene expression or corticosterone at specific days were compared by Mann-Whitney rank sum test, even if normality tests and equal variance tests were positive, reflecting the small sample sizes of 3-9. A statistically significant difference was assumed with P values less than 0.05. Correlations between phase-shift activity onsets and corticosterone maxima were performed using linear regression. The quality of fit was estimated by r determination. Departure from linearity was tested with runs test. Normality and homoscedasticity tests were passed for all data sets. Diurnal variation of expression data was tested using Fourier analysis with CircWave version 3.3 software (Oster et al. 2006) and threshold values of 0.05 for α and a period of 24 hours.

[6] = METD (ZT3 injection, 16 days before shift) vs SALD
[7] = METN (ZT12 injection, 16 days before shift) vs SALN

SMILES | circadian responses to light [1] | reentrainment after phase advances of the LD cycle [1] | activity resetting after 6-hour phase advance [2, 6] | activity resetting after 6-hour phase advance [2, 7] | effect on the onset of wheel-running activity ([3]; METD mice) | effect on the onset of wheel-running activity ([3]; METN mice) | side effect of injection ([3]; daily i.p. injection, 100 mg/kg, 16 days) | behavioral adaptation after 8-hour phase delay [4, 6] | behavioral adaptation after 8-hour phase delay [4, 7] | amplitude of glucocorticoid excretion rhythms ([5]; METD and METN, 16 days of treatment, data not shown) | forward shift of corticosterone maximum relative to SALD control ([5]; METD: 100 mg/kg/day i.p. at ZT3 (rest phase) for 16 days, day prior to phase shift) | backward shift of peak corticosterone relative to SALN ([5]; METN: 100 mg/kg/day i.p. at ZT12 (beginning of activity phase) for 16 days) | direction of shift of the peak of maximum glucocorticoid levels ([5]; administration at 6 pm (first half of the active phase)) | direction of shift of the peak of maximum glucocorticoid levels ([5]; administration at 9 am (first half of rest phase))
CCCc1nn(C)c2c(=O)[nH]c(-c3cc(S(=O)(=O)N4CCN(C)CC4)ccc3OCC)nc12 [sildenafil] | enhances circadian responses to light | accelerates reentrainment | – | – | – | – | – | – | – | – | – | – | – | –
CC(C)(C(=O)c1cccnc1)c1cccnc1 [metyrapone, 2-methyl-1,2-di-3-pyridyl-1-propanone] | – | – | accelerated activity resetting | reentrained slower | no effect | only minor effect | transient drowsiness | decelerated adaptation | more rapid behavioural adaptation | did not significantly change | 1 h | 1 h | backward shift | forward shift
